Measurements as given in the supplement of paper PMC10307832.

Key:
Experiment in all cases: relative viability (nuclei count vs DMSO), 5 days (fraction); higher = more cells survive
[1] = compound: COc1cc2ncn(-c3cc(OCc4ccccc4C(F)(F)F)c(C(N)=O)s3)c2cc1OC + CS(=O)(=O)N1CCN(Cc2cc3nc(-c4cccc5[nH]ncc45)nc(N4CCOCC4)c3s2)CC1 [Pictilisib] (partner 1 µM)
Procedure, shortened: (§1)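 Nuclei were stained with Hoechst during a one-step fixation (final 0.05% Triton X-100, 1% formaldehyde, 1 ug/ml Hoechst) carried out 5 days after dosing, then counted on 4× images. The cells, lung cancer lines in 1536-well plates, had been dosed by pin tool the day after seeding with one drug alone or a fixed anchor-drug dose plus five library-drug doses (not always all listed) in √10 steps. Relative viability is the nuclei count in treated wells divided by that in vehicle wells, and each value is the median of duplicate plates.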

[2] = compound: COc1cc2ncn(-c3cc(OCc4ccccc4C(F)(F)F)c(C(N)=O)s3)c2cc1OC + Cc1nc(NC(=O)N2CCC[C@H]2C(N)=O)sc1-c1ccnc(C(C)(C)C(F)(F)F)c1 [Alpelisib] (partner 2 µM)
Procedure, shortened: as §1

[3] = compound: COc1cc2ncn(-c3cc(OCc4ccccc4C(F)(F)F)c(C(N)=O)s3)c2cc1OC + N=C(N)NC(=N)NCCc1ccccc1 [Phenformin] (partner 250 µM)
Procedure, shortened: as §1

[4] = compound: COc1cc2ncn(-c3cc(OCc4ccccc4C(F)(F)F)c(C(N)=O)s3)c2cc1OC + NC(=O)Nc1cc(-c2cccc(F)c2)sc1C(=O)N[C@H]1CCCNC1 [AZD7762] (partner 0.2 µM)
Procedure, shortened: as §1

| Cell Line | relative viability ([1]; first compound 0.05 µM) | relative viability ([1]; first compound 0.1581 µM) | relative viability ([1]; first compound 0.5 µM) | relative viability ([1]; first compound 1.581 µM) | relative viability ([1]; first compound 5 µM) | relative viability ([2]; first compound 0.05 µM) | relative viability ([2]; first compound 0.1581 µM) | relative viability ([2]; first compound 0.5 µM) | relative viability ([2]; first compound 1.581 µM) | relative viability ([2]; first compound 5 µM) | relative viability ([3]; first compound 0.05 µM) | relative viability ([3]; first compound 0.1581 µM) | relative viability ([3]; first compound 0.5 µM) | relative viability ([3]; first compound 1.581 µM) | relative viability ([3]; first compound 5 µM) | relative viability ([4]; first compound 0.05 µM) | relative viability ([4]; first compound 0.1581 µM) | relative viability ([4]; first compound 0.5 µM) | relative viability ([4]; first compound 1.581 µM) | relative viability ([4]; first compound 5 µM) |
| --- | --- | --- | --- | --- | --- | --- | --- | --- | --- | --- | --- | --- | --- | --- | --- | --- | --- | --- | --- | --- |
| LK-2 | 0.548 | 0.566 | 0.307 | 0.263 | 0.306 | 1.13 | 0.957 | 0.575 | 0.298 | 0.263 | 0.423 | 0.445 | 0.23 | 0.187 | 0.106 | 0.386 | 0.366 | 0.202 | 0.115 | 0.126 |
| LOU-NH91 | 0.554 | 0.544 | 0.51 | 0.399 | 0.418 | 0.705 | 0.843 | 0.626 | 0.447 | 0.488 | 0.734 | 0.855 | 0.526 | 0.297 | 0.432 | 0.774 | 0.818 | 0.638 | 0.41 | 0.277 |
| LU99A | 0.307 | 0.342 | 0.271 | 0.159 | 0.15 | 0.488 | 0.495 | 0.36 | 0.189 | 0.167 | 1.01 | 0.865 | 0.723 | 0.241 | 0.174 | 0.306 | 0.385 | 0.226 | 0.132 | 0.0907 |
| LXF-289 | 0.789 | 0.752 | 0.447 | 0.0857 | 0.0529 | 0.994 | 0.801 | 0.138 | 0.0881 | 0.0604 | 0.437 | 0.466 | 0.256 | 0.0678 | 0.0402 | 1.1 | 1 | 0.983 | 0.134 | 0.0617 |
| NCI-H23 | 0.451 | 0.339 | 0.228 | 0.148 | 0.117 | 0.836 | 0.363 | 0.326 | 0.137 | 0.102 | 0.798 | 0.821 | 0.433 | 0.129 | 0.125 | 0.196 | 0.261 | 0.199 | 0.0923 | 0.0935 |
| NCI-H322M | 0.549 | 0.505 | 0.556 | 0.384 | 0.318 | 0.797 | 0.847 | 0.687 | 0.426 | 0.336 | 0.739 | 0.869 | 0.631 | 0.363 | 0.303 | 0.593 | 0.722 | 0.498 | 0.451 | 0.413 |
| NCI-H358 | 0.362 | 0.347 | 0.293 | 0.148 | 0.14 | 0.852 | 1 | 0.386 | 0.127 | 0.177 | 0.3 | 0.321 | 0.162 | 0.0752 | 0.0692 | 0.541 | 0.493 | 0.419 | 0.193 | 0.14 |
| NCI-H441 | 0.652 | 0.352 | 0.163 | 0.13 | 0.131 | 0.771 | 0.506 | 0.161 | 0.177 | 0.156 | 0.837 | 0.636 | 0.196 | 0.196 | 0.227 | 1.13 | 0.73 | 0.437 | 0.198 | 0.171 |
| NCI-H460 | 0.401 | 0.206 | 0.323 | 0.0526 | 0.183 | 0.51 | 0.537 | 0.0496 | 0.0115 | 0.0095 | 0.476 | 0.49 | 0.0454 | 0.0127 | 0.0125 | 0.63 | 0.654 | 0.554 | 0.0553 | 0.0434 |
| NCI-H596 | 0.393 | 0.405 | 0.371 | 0.191 | 0.178 | 0.496 | 0.514 | 0.35 | 0.29 | 0.23 | 0.81 | 0.811 | 0.466 | 0.397 | 0.275 | 1.1 | 1.14 | 0.943 | 0.664 | 0.413 |
| NCI-H647 | 0.441 | 0.425 | 0.413 | 0.0779 | 0.057 | 1.23 | 1.1 | 0.214 | 0.079 | 0.0802 | 0.537 | 0.509 | 0.101 | 0.0685 | 0.069 | 0.356 | 0.491 | 0.248 | 0.0314 | 0.026 |
| NCI-H650 | 0.959 | 0.781 | 0.642 | 0.224 | 0.396 | 1.11 | 1.1 | 0.698 | 0.185 | 0.29 | 0.511 | 0.458 | 0.374 | 0.171 | 0.205 | 1.21 | 1.01 | 0.92 | 0.561 | 0.581 |
| NCI-H727 | 0.392 | 0.373 | 0.403 | 0.245 | 0.188 | 0.545 | 0.695 | 0.41 | 0.282 | 0.247 | 0.652 | 0.432 | 0.372 | 0.363 | 0.399 | 0.712 | 0.495 | 0.504 | 0.527 | 0.487 |
| NCI-H838 | 0.514 | 0.519 | 0.478 | 0.14 | 0.0851 | 1.25 | 1.02 | 0.956 | 0.36 | 0.142 | 0.72 | 0.61 | 0.324 | 0.139 | 0.0964 | 0.968 | 0.916 | 0.73 | 0.609 | 0.581 |
| NCI-H1355 | 0.499 | 0.399 | 0.385 | 0.182 | 0.151 | 0.879 | 0.827 | 0.669 | 0.208 | 0.143 | 0.453 | 0.434 | 0.358 | 0.17 | 0.161 | 0.793 | 0.747 | 0.456 | 0.163 | 0.137 |
| NCI-H1395 | 0.609 | 0.686 | 0.461 | 0.635 | 0.438 | 1.04 | 1.11 | 0.726 | 0.342 | 0.375 | 0.459 | 0.438 | 0.386 | 0.335 | 0.295 | 0.454 | 0.396 | 0.377 | 0.323 | 0.316 |
